Patent US6815464B2, “Carbamate compounds for use in the treatment of pain” (Ortho-McNeil Pharmaceutical, Inc., priority 2001, dated 2004)
Marks after values point to notes of the source that are not given here.

System: sciatic nerve loose ligation in rats
Test: Bennett model (Chronic Constrictive Injury), thermal stimulation, paw-withdrawal latency
Assay type: in vivo
Conditions: rat; for Antihyperalgesic Effectiveness (% Effective): vs vehicle control; for anti-hyperalgesic effect against a thermal stimulation challenge: p.o., summary statement in words
Source text: Bennett Model (Chronic Constrictive Injury)
The Bennett model consists of sciatic nerve loose ligation in rats (Bennett G J and Xie Y K, A peripheral mononeuropathy in rat that produces disorders of pain sensation like those seen in man, Pain, 1988, 33, 87-107). Although the pharmacological profile of the spontaneous pain, protective posture and allodynia (minor) is similar to that of clinical neuropathic pain, the loose chronic ligature of sciatic nerve in the Bennett model causes greater thermal hyperalgesia than mechanical allodynia due to its inflammatory mechanism. The loose ligation causes the constriction/swelling followed by inflammation at the ligation site, a condition most commonly associated with various types of pain. The behavioral response to the ligature is one of hyperalgesia. Thus, anti-hyperalgesia reduces chronic signs of pain hypersensitivity. Therefore, the Bennett model is used to evaluate antinociceptive pain (Cui J G, Possible role of inflammatory mediators in tactile hypersensitivity in rat models of mononeuropathy, Pain, 2000, 88 (3), 239-248; Lovell J A, Changes in Spinal Serotonin Turnover Mediate Age-Related Differences in the Behavioral Manifestations of Peripheral Nerve Injury, Pharmacol. Biochem. Behav., 2000, 66 (4), 873-878; Yasuda T, The novel analgesic compound OT-7100[5-n-butyl-7-(3,4,5-trimethoxybenzoylamino)pyrazolo[1,5a]pyrimidine] attenuates mechanical nociceptive responses in animal models of acute and peripheral neuropathic hyperalgesia, J. Pharmacol., 1999, 79 (1), 65-73; Toda K, Antinociceptive effects of neurotropin in a rat model of painful peripheral mononeuropathy, Life Sci., 1998, 62 (10), 913-921; Munglani R, Neuropeptide changes persist in spinal cord despite resolving hyperalgesia in a rat model of mononeuropathy, Brain Res., 1996, 743, 1 (2), 102-108).
[…] The anti-hyperalgesia effect was assessed at 30, 60, and 90 minutes after the oral administration.
Rats (180-220 g body weight) were anesthetized (sodium pentobarbital, 40 mg/kg, ip) and an incision was made at the mid-thigh level to expose the common left sciatic nerve. Four ligatures spaced 1 mm apart were loosely tied around the sciatic nerve. The wound was then sutured. The rats received an i.m. injection of 50,000 IU Penicillin and were allowed to recover after this procedure. At least one week after the surgery, when the chronic state was fully established, rats were consecutively submitted to thermal stimulation of both the non-lesioned and the lesioned hind-paws. The apparatus (UgoBasil, Reference: 7371) consists of 6 individual Plexiglas boxes (17×13×13 cm) placed upon an elevated glass floor. The rat was placed in the box and allowed to habituate for 10 minutes. A mobile infrared radiant source (setting 20) was then focused under the non-lesioned and lesioned hind-paws and the paw-withdrawal latencies in seconds were automatically recorded. The test was performed in a blinded fashion. The increased latency in treated animals as compared to control animals (those receiving only vehicle) was expressed as % of effectiveness of the drug. Data were analyzed by comparing the treated lesion group with controls using unpaired Student's t-test.

[1] = 10 mg/kg p.o., 60 min after administration
[2] = 10 mg/kg p.o., 90 min after administration
[3] = 30 mg/kg p.o., 30 min after administration
[4] = 30 mg/kg p.o., 60 min after administration
[5] = 30 mg/kg p.o., 90 min after administration
[6] = 300 mg/kg p.o., 30 min after administration
[7] = 300 mg/kg p.o., 60 min after administration
[8] = 300 mg/kg p.o., 90 min after administration

Structure (SMILES)	Antihyperalgesic Effectiveness (% Effective) [1]	Antihyperalgesic Effectiveness (% Effective) [2]	Antihyperalgesic Effectiveness (% Effective) [3]	Antihyperalgesic Effectiveness (% Effective) [4]	Antihyperalgesic Effectiveness (% Effective) [5]	Antihyperalgesic Effectiveness (% Effective) [6]	Antihyperalgesic Effectiveness (% Effective) [7]	Antihyperalgesic Effectiveness (% Effective) [8]	anti-hyperalgesic effect against a thermal stimulation challenge
NC(=O)OC[C@H](OC(N)=O)c1ccccc1Cl [Formula (IIb)]	121%	50%	61%	318** %	182** %	48%	198** %	69%	anti-hyperalgesic effect
NC(=O)OC[C@@H](O)c1ccccc1Cl [Formula (Ib)]	79%	53%	59%	109%	107%	43%	314** %	151%	anti-hyperalgesic effect
